{"source": "patent US5817840A", "about": "“Water soluble taxol derivatives” (The Scripps Research Institute, priority 1997, dated 1998)", "key": {"[1]": {"test_system": "BALB/c 3T3 (normal mouse embryo)", "assay": "Cytotoxicity (sulphorhodamine B), normal cell line, Table 1B", "type": "cell-based", "conditions": "BALB/c3T3, 72 h", "procedure": "(§3) The cytotoxicities were determined using the sulphorhodamine B assay method (Skehan, P. et al. J. Nat. Canc. Inst. 82, 1107 (1990))."}, "[2]": {"test_system": "CHO (Chinese hamster ovary)", "assay": "Cytotoxicity (sulphorhodamine B), normal cell line, Table 1B", "type": "cell-based", "conditions": "Cricetulus griseus, 72 h", "procedure": "as §3"}, "[3]": {"test_system": "H322 (lung carcinoma)", "assay": "Cytotoxicity (sulphorhodamine B), cancer cell line, Table 1B", "type": "cell-based", "conditions": "NCI-H322, 72 h", "procedure": "as §3"}, "[4]": {"test_system": "BT-549 (breast carcinoma)", "assay": "Cytotoxicity (sulphorhodamine B), cancer cell line, Table 1B", "type": "cell-based", "conditions": "Homo sapiens, BT-549, 72 h", "procedure": "as §3"}, "[5]": {"test_system": "OVCAR-3 (ovarian carcinoma)", "assay": "Cytotoxicity (sulphorhodamine B), cancer cell line, Table 1B", "type": "cell-based", "conditions": "Homo sapiens, OVCAR-3, 72 h", "procedure": "as §3"}, "[6]": {"test_system": "SIHA (cervix carcinoma)", "assay": "Cytotoxicity (sulphorhodamine B), cancer cell line, Table 1B", "type": "cell-based", "conditions": "Homo sapiens, SiHa, 72 h", "procedure": "as §3"}, "[7]": {"test_system": "HL-60 (promyel carcinoma)", "assay": "Cytotoxicity (sulphorhodamine B), cancer cell line, Table 1B", "type": "cell-based", "conditions": "Homo sapiens, HL-60, 72 h", "procedure": "as §3"}, "[8]": {"test_system": "MOLT-4 (T-cell leukaemia)", "assay": "Cytotoxicity (sulphorhodamine B), cancer cell line, Table 1B", "type": "cell-based", "conditions": "Homo sapiens, MOLT-4, 72 h", "procedure": "as §3"}, "[9]": {"test_system": "L1210 (mouse leukaemia)", "assay": "Cytotoxicity (sulphorhodamine B), cancer cell line, Table 1B", "type": "cell-based", "conditions": "L1210, 72 h", "procedure": "as §3"}, "[10]": {"test_system": "UCLA-P-3 (lung carcinoma)", "assay": "Cytotoxicity (sulphorhodamine B), cancer cell line, Table 1B", "type": "cell-based", "conditions": "Homo sapiens, UCLA P-3, 72 h", "procedure": "as §3"}, "[11]": {"test_system": "786-0 (human perirenal cell adenocarci)", "assay": "Cytotoxicity, Example 8", "type": "cell-based", "conditions": "786-0, 72 h", "method": "(§1) Tumor or normal cells were cultured in 96-well plates with the test compound in 200 μl of RPMI supplemented with 10% fetal bovine serum (Hyclone, Salt Lake City, Utah) at 37° C. in a humidified atmosphere containing 5% CO2 in air for 72 hours. Sulforhodamine B dissolved in 1% acetic acid was added, and the plates were incubated for 30 minutes at ambient temperature, washed with 1% acetic acid, and blotted. To the air-dried plates were added 100 μl of […] unbuffered TRIS base (pH 10.5) with shaking. The optical densities of the plates were measured with a microplate reader (Molecular Devices Thermomax) at 540 nm. The concentration of compound required to reduce the absorbance to 50% of control samples was recorded as IC50.\n(§2) NHDF: Normal human dermal fibroblast (available from Clouelics Corp., San Diego, Calif.); HLF-1: Normal human diploid lung; W1-38; Normal human diploid lung; CHO; Chinese hamster ovary; SK-MEL-28: Melanoma; CAPAN-1: Pancreatic carcinoma; H322: lung carcinoma; MCF-7; Breast carcinoma; BT-549; Human breast ductal carcinoma; OVCAR-3: Human ovarian carcinoma; HT-29: Human adenocarcinoma, colon; SIHA: Human squamous carcinoma crvx; 786-0: Human perirenal cell adenocarci; PC-3: Human prostate adenocarcinoma; HL-60: Human promyelomic leukemia; MOLT-4: Human T-cell leukemia. All cell lines except NHDF are available from the American Tissue Culture Collection, Rockville, Md."}, "[12]": {"test_system": "BT-549 (human breast ductal carcinoma)", "assay": "Cytotoxicity, Example 8", "type": "cell-based", "conditions": "BT-549, 72 h", "method": "as §1, §2"}, "[13]": {"test_system": "CAPAN-1 (pancreatic carcinoma)", "assay": "Cytotoxicity, Example 8", "type": "cell-based", "conditions": "Homo sapiens, CAPAN-1, 72 h", "method": "as §1, §2"}, "[14]": {"test_system": "CHO (Chinese hamster ovary)", "assay": "Cytotoxicity, Example 8", "type": "cell-based", "conditions": "Cricetulus griseus, 72 h", "method": "as §1, §2"}, "[15]": {"test_system": "H322 (lung carcinoma)", "assay": "Cytotoxicity, Example 8", "type": "cell-based", "conditions": "NCI-H322, 72 h", "method": "as §1, §2"}, "[16]": {"test_system": "HLF-1 (normal human diploid lung)", "assay": "Cytotoxicity, Example 8", "type": "cell-based", "conditions": "HLF1, 72 h", "method": "as §1, §2"}, "[17]": {"test_system": "HT-29 (human adenocarcinoma, colon)", "assay": "Cytotoxicity, Example 8", "type": "cell-based", "conditions": "HT-29, 72 h", "method": "as §1, §2"}, "[18]": {"test_system": "MCF-7 (breast carcinoma)", "assay": "Cytotoxicity, Example 8", "type": "cell-based", "conditions": "Homo sapiens, MCF7, 72 h", "method": "as §1, §2"}, "[19]": {"test_system": "NHDF (normal human dermal fibroblast)", "assay": "Cytotoxicity, Example 8", "type": "cell-based", "conditions": "72 h", "method": "as §1, §2"}, "[20]": {"test_system": "OVCAR-3 (human ovarian carcinoma)", "assay": "Cytotoxicity, Example 8", "type": "cell-based", "conditions": "OVCAR-3, 72 h", "method": "as §1, §2"}, "[21]": {"test_system": "PC-3 (human prostate adenocarcinoma)", "assay": "Cytotoxicity, Example 8", "type": "cell-based", "conditions": "72 h", "method": "as §1, §2"}, "[22]": {"test_system": "S1HA (human squamous carcinoma crvx)", "assay": "Cytotoxicity, Example 8", "type": "cell-based", "conditions": "72 h", "method": "as §1, §2"}, "[23]": {"test_system": "SK-MEL-28 (melanoma)", "assay": "Cytotoxicity, Example 8", "type": "cell-based", "conditions": "Homo sapiens, SK-MEL-28, 72 h", "method": "as §1, §2"}, "[24]": {"test_system": "W1-38 (normal human diploid lung)", "assay": "Cytotoxicity, Example 8", "type": "cell-based", "conditions": "W138, 72 h", "method": "as §1, §2"}, "[25]": {"assay": "Taxol release from protaxols in aqueous buffer", "type": "physicochemical", "conditions": "pH 7.0-9.0, 20 and 37° C., FIG. 2A", "method": "The derivatives in which the C-7 hydroxyl group was acetylated were extremely unstable in aqueous media losing the C-7 substituent very rapidly. The stability of the synthesized compounds was examined at various pH's and temperatures. […] Table 1A includes the half-lives of six of these compounds at pH 7.5 and 9. […] This illustrates the ability to fine-tune the rate of release of taxol to a desired set of conditions using simple chemical principles.\nProtaxol 5 was dissolved in dimethylsulphoxide (DMSO) at 25° C. and immediately added to the appropriate phosphate buffer solution at the specified temperature. Aliquots were analysed using a Waters Maxima system HPLC instrument equipped with auto-injector (3.9×300 mm C18 column equipped with a precolumn; flow rate, 1.5 ml min^-1; eluant, gradient A-B, where A is 80% 100 mM ammonium acetate, buffer pH 6.0, and B is 100% methanol; ultraviolet detector). The per cent taxol released was determined from the relative areas of the peaks corresponding to protaxol 5 and taxol (the conversion was clean, and it was assumed that the two compounds have equal molar extinction coefficients)."}, "[26]": {"assay": "Taxol release in human blood plasma at 37° C.", "type": "in vitro ADME", "method": "Protaxol 5 and N-cyclohexylbenzamide (as internal standard) were dissolved in acetonitrile and immediatley added to human plasma or phosphate buffer at pH 7.4. Samples-of protaxol 5 were incubated in each medium for specified times and then extracted with ethyl acetate as described by S. M. Longnecker, et al., Cancer Treat. Rep. 71, 53 (1987). Solvent was removed and the residue dissolved in acetonitrile and analysed by HPLC as already described. The peak areas for compound 5 and taxol were normalized to that of the internal standard using a calibration curve."}}, "note": "“Also recorded” adds a separate entry of the source."}
{"compound": "CC(=O)O[C@H]1C(=O)[C@@]2(C)[C@H]([C@H](OC(=O)c3ccccc3)[C@]3(O)C[C@H](OC(=O)[C@H](OC(=O)CS(=O)(=O)CC(=O)O)[C@@H](NC(=O)c4ccccc4)c4ccccc4)C(C)=C1C3(C)C)[C@]1(OC(C)=O)CO[C@@H]1C[C@@H]2O", "note": "[Compound 5]", "values": [{"measurement": "IC50", "setting": "[1]", "value": 10, "unit": "µM"}, {"measurement": "IC50", "setting": "[2]", "value": 100, "unit": "µM"}, {"measurement": "IC50", "setting": "[3]", "value": 0.001, "unit": "µM"}, {"measurement": "IC50", "setting": "[4]", "value": "< 0.001", "unit": "µM"}, {"measurement": "IC50", "setting": "[5]", "value": "< 0.001", "unit": "µM"}, {"measurement": "IC50", "setting": "[6]", "value": 100, "unit": "µM"}, {"measurement": "IC50", "setting": "[7]", "value": "< 0.001", "unit": "µM"}, {"measurement": "IC50", "setting": "[8]", "value": 0.001, "unit": "µM"}, {"measurement": "IC50", "setting": "[9]", "value": 10, "unit": "µM"}, {"measurement": "IC50", "setting": "[10]", "value": "< 0.001", "unit": "µM"}, {"measurement": "IC50", "setting": "[11]", "value": 0.13, "unit": "µM"}, {"measurement": "IC50", "setting": "[12]", "value": 0.098, "unit": "µM"}, {"measurement": "IC50", "setting": "[13]", "value": 0.19, "unit": "µM"}, {"measurement": "IC50", "setting": "[14]", "value": 100, "unit": "µM"}, {"measurement": "IC50", "setting": "[15]", "value": 5, "unit": "µM"}, {"measurement": "IC50", "setting": "[16]", "value": 13, "unit": "µM"}, {"measurement": "IC50", "setting": "[17]", "value": 0.098, "unit": "µM"}, {"measurement": "IC50", "setting": "[18]", "value": 61, "unit": "µM"}, {"measurement": "IC50", "setting": "[19]", "value": 0.19, "unit": "µM"}, {"measurement": "IC50", "setting": "[20]", "value": 0.098, "unit": "µM"}, {"measurement": "IC50", "setting": "[21]", "value": 50, "unit": "µM"}, {"measurement": "IC50", "setting": "[22]", "value": 50, "unit": "µM"}, {"measurement": "IC50", "setting": "[23]", "value": 100, "unit": "µM"}, {"measurement": "IC50", "setting": "[24]", "value": 13, "unit": "µM"}, {"measurement": "effect of temperature and pH on taxol release", "setting": "[25]", "value": "accelerating effect of higher temperatures and pH on taxol release"}, {"measurement": "taxol release in human blood plasma (in words)", "setting": "[26]; compared to pH 7.4 buffer", "value": "accelerated release of taxol; also recorded: rapidly releasing taxol"}, {"measurement": "half-life", "setting": "[26]; human blood plasma", "value": "~1.67", "unit": "h"}]}
